This passage reports GI50 and TGI results from PubChem BioAssay (NCI).

Among the test systems are RXF 393 renal; SNB-19 CNS; UACC-257 melanoma; NCI-H226 lung; SF-268 CNS; K-562 leukemia; MCF7 breast; IGROV1 ovarian; SK-MEL-2 melanoma; CAKI-1 renal.
Common to all, as to test: inhibition of tumour cell growth, NCI panel, 48 h

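Following 48 hours of exposure in 96-well plates, responses at five concentrations were used to interpolate endpoints linearly. GI50 = concentration required for 50% inhibition of growth. TGI denotes the concentration required for complete inhibition of growth.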

As for `CC(=O)OCC1OC(S[As](C)C)C(OC(C)=O)C1OC(C)=O` (stereo not given), the GI50 in the assay on RXF 393 renal is 0.455 µM; with SNB-19 CNS it was 9.06 µM; in the assay with UACC-257 melanoma, 1.57 µM; in the assay on NCI-H226 lung it was 1.63 µM; in the assay on SF-268 CNS, 1.31 µM; in the assay on K-562 leukemia, 0.0721 µM. The GI50 was 0.304 µM in the assay with MCF7 breast, 0.732 µM in the assay on IGROV1 ovarian, 1.2 µM in the assay with SK-MEL-2 melanoma and 0.0791 µM with CAKI-1 renal. For the same molecule, the TGI is 2.31 µM in the assay on RXF 393 renal; 29.5 µM with SNB-19 CNS; 7.06 µM in the assay on UACC-257 melanoma; 6.27 µM in the assay with NCI-H226 lung; 7.53 µM in the assay with SF-268 CNS; 0.618 µM with K-562 leukemia. Besides, the TGI with MCF7 breast amounted to 1.11 µM; in the assay with IGROV1 ovarian it was 4.06 µM; in the assay on SK-MEL-2 melanoma, 7.82 µM; in the assay on CAKI-1 renal, 0.453 µM.

On to `CC/C(=C(\CC)c1ccc(OCCN(CC)CC)cc1)c1ccc(OCCN(CC)CC)cc1`, for which the GI50 in the assay with RXF 393 renal is 1.63 µM; with SNB-19 CNS, 3.26 µM; in the assay with UACC-257 melanoma it was 1.23 µM; in the assay with NCI-H226 lung, 3.87 µM; in the assay on SF-268 CNS, 5.43 µM; in the assay on K-562 leukemia it was 1.79 µM. Also, the GI50 is 2.81 µM in the assay with MCF7 breast, 3.3 µM in the assay on IGROV1 ovarian, 1.9 µM in the assay on SK-MEL-2 melanoma and 3.17 µM in the assay with CAKI-1 renal. For the same molecule, the TGI came out at 3.75 µM in the assay on RXF 393 renal; 10.6 µM in the assay with SNB-19 CNS; 2.82 µM with UACC-257 melanoma; 13.7 µM with NCI-H226 lung; 18.3 µM in the assay on SF-268 CNS; 10.5 µM with K-562 leukemia. Further, the TGI in the assay on MCF7 breast came out at 7.99 µM; with IGROV1 ovarian, 22.1 µM; in the assay on SK-MEL-2 melanoma, 7.58 µM; with CAKI-1 renal, 15.7 µM.

In the case of `Cc1ccc(C(=O)NC2CCCCC2)cc1-c1ccc(C(=O)NCC2CC2)cc1`, the GI50 with RXF 393 renal was above 25 µM; in the assay with SNB-19 CNS, above 25 µM; in the assay with UACC-257 melanoma it was above 25 µM; with NCI-H226 lung it was above 25 µM; in the assay on SF-268 CNS, above 25 µM; in the assay with K-562 leukemia it was 19.4 µM. Also, the GI50 with MCF7 breast was above 23.9 µM; in the assay on IGROV1 ovarian, above 25 µM; in the assay on SK-MEL-2 melanoma it was above 25 µM; with CAKI-1 renal, 24.9 µM. In addition, the TGI in the assay on RXF 393 renal, with SNB-19 CNS, in the assay on UACC-257 melanoma, with NCI-H226 lung, with SF-268 CNS and with K-562 leukemia was above 25 µM each time. In addition, the TGI with MCF7 breast, with IGROV1 ovarian, in the assay on SK-MEL-2 melanoma and in the assay with CAKI-1 renal was above 25 µM throughout.

Consider `C=C[C@]1(C)C=C2C(=O)[C@@]3(O)OC(=O)[C@@]4(CCCC(C)(C)[C@H]34)[C@@]2(O)CC1`, for which the GI50 in the assay with RXF 393 renal was 0.608 µM; with SNB-19 CNS it was 6.33 µM; in the assay on UACC-257 melanoma, 1.33 µM; in the assay with NCI-H226 lung, 5.14 µM; in the assay with SF-268 CNS, 1.89 µM; in the assay on K-562 leukemia, 2.13 µM. Besides, the GI50 with MCF7 breast was 1.42 µM; in the assay on IGROV1 ovarian it was 2.16 µM; in the assay on SK-MEL-2 melanoma, 2.27 µM; in the assay on CAKI-1 renal it was 1.33 µM. Besides, the TGI was 1.91 µM in the assay with RXF 393 renal; 19.7 µM in the assay with SNB-19 CNS; 2.91 µM in the assay on UACC-257 melanoma; 26.1 µM in the assay on NCI-H226 lung; 4.69 µM in the assay on SF-268 CNS; 10.1 µM in the assay with K-562 leukemia. The TGI in the assay with MCF7 breast is 6.96 µM; in the assay on IGROV1 ovarian, 4.58 µM; with SK-MEL-2 melanoma it was 5.02 µM; with CAKI-1 renal it was 3.02 µM.

As to `CCOC(=O)c1c(Cl)c2c(n1Cc1cc(OC)cc(OC)c1)-c1oncc1CCC2`, the GI50 in the assay with RXF 393 renal was 0.201 µM; with SNB-19 CNS it was 0.629 µM; in the assay with UACC-257 melanoma, 0.92 µM; with NCI-H226 lung it was 6.84 µM; in the assay on SF-268 CNS, 1.65 µM; in the assay on K-562 leukemia it was 0.225 µM. For the same molecule, the GI50 in the assay on MCF7 breast is 0.168 µM; in the assay on IGROV1 ovarian it was 0.317 µM; in the assay with SK-MEL-2 melanoma it was 0.226 µM; in the assay with CAKI-1 renal it was 0.29 µM. Also, the TGI in the assay with RXF 393 renal is 6.03 µM; in the assay with SNB-19 CNS, above 100 µM; in the assay with UACC-257 melanoma, above 100 µM; with NCI-H226 lung it was above 100 µM; in the assay with SF-268 CNS, above 100 µM; with K-562 leukemia, above 100 µM. In addition, the TGI with MCF7 breast was above 100 µM; in the assay with IGROV1 ovarian it was above 54.8 µM; in the assay on SK-MEL-2 melanoma it was 4.07 µM; in the assay with CAKI-1 renal it was above 60.7 µM.

Consider `NC(=O)Oc1cc(OC(N)=O)cc(N(CCCl)CCCl)c1`, for which the GI50 in the assay with RXF 393 renal was 1.98 µM; in the assay on SNB-19 CNS, 10.6 µM; with UACC-257 melanoma it was 12.1 µM; in the assay on NCI-H226 lung, 14.9 µM; in the assay on SF-268 CNS it was 1.88 µM; in the assay on K-562 leukemia it was 10 µM. The GI50 in the assay on MCF7 breast was 1.09 µM; in the assay on IGROV1 ovarian, 6.71 µM; with SK-MEL-2 melanoma, 15.6 µM; in the assay on CAKI-1 renal, 2.97 µM. In addition, the TGI was 5.4 µM with RXF 393 renal; above 100 µM in the assay on SNB-19 CNS; 53.6 µM with UACC-257 melanoma; 77.7 µM with NCI-H226 lung; 29.4 µM in the assay on SF-268 CNS; above 100 µM with K-562 leukemia. The TGI was 47.4 µM with MCF7 breast, 49 µM in the assay on IGROV1 ovarian, 47.8 µM in the assay on SK-MEL-2 melanoma and 80.4 µM in the assay on CAKI-1 renal.

Turning to `ON(CCc1ccccn1)Cc1ccccc1`, the TGI with RXF 393 renal, in the assay with SNB-19 CNS, with UACC-257 melanoma, with NCI-H226 lung, with SF-268 CNS and in the assay on K-562 leukemia was above 100 µM in each case. In addition, the TGI with MCF7 breast, in the assay on IGROV1 ovarian, with SK-MEL-2 melanoma and in the assay with CAKI-1 renal was above 100 µM throughout.

On to `CN1CCN(Cc2ccc(Nc3ncc(Cl)c(Nc4ccccc4S(=O)(=O)N(C)C)n3)cc2)CC1`, for which the GI50 in the assay with RXF 393 renal was 0.033 µM; in the assay on SNB-19 CNS it was 0.0529 µM; with UACC-257 melanoma, 0.0473 µM; in the assay with NCI-H226 lung it was 0.0915 µM; with SF-268 CNS, 0.0997 µM; with K-562 leukemia, 0.0386 µM. Moreover, the GI50 in the assay with MCF7 breast is below 0.01 µM; in the assay with IGROV1 ovarian, 0.0249 µM; in the assay with SK-MEL-2 melanoma it was 0.0458 µM; in the assay with CAKI-1 renal, 0.0377 µM. Moreover, the TGI in the assay on RXF 393 renal was 0.122 µM; in the assay with SNB-19 CNS, 2.96 µM; in the assay with UACC-257 melanoma it was 0.82 µM; in the assay with NCI-H226 lung, 0.859 µM; with SF-268 CNS, 1.02 µM; in the assay with K-562 leukemia, above 100 µM. In addition, the TGI in the assay on MCF7 breast came to 1.17 µM; in the assay with IGROV1 ovarian it was 1.63 µM; in the assay with SK-MEL-2 melanoma it was 0.172 µM; with CAKI-1 renal, 1.09 µM.
